The source of these data is patent US11427548B2 (Arvinas Operations, Inc., priority 2015, dated 2022).

Usually DC50 stands for the concentration giving 50% degradation. A lower DC50 goes with degradation at low concentration. The Dmax is the greatest extent of degradation seen. A lower Dmax goes with a partial loss of target.

In the test the target is T1, Androgen Receptor (Homo sapiens, UniProt P10275+P40337, T878A).
T1 construct: Compounds have been evaluated in this assay in LNCaP and/or VCaP cells utilizing similar protocols; endogenous in cells; host or cells: LNCaP cells
T1 sequence (P10275 whole entry T878A): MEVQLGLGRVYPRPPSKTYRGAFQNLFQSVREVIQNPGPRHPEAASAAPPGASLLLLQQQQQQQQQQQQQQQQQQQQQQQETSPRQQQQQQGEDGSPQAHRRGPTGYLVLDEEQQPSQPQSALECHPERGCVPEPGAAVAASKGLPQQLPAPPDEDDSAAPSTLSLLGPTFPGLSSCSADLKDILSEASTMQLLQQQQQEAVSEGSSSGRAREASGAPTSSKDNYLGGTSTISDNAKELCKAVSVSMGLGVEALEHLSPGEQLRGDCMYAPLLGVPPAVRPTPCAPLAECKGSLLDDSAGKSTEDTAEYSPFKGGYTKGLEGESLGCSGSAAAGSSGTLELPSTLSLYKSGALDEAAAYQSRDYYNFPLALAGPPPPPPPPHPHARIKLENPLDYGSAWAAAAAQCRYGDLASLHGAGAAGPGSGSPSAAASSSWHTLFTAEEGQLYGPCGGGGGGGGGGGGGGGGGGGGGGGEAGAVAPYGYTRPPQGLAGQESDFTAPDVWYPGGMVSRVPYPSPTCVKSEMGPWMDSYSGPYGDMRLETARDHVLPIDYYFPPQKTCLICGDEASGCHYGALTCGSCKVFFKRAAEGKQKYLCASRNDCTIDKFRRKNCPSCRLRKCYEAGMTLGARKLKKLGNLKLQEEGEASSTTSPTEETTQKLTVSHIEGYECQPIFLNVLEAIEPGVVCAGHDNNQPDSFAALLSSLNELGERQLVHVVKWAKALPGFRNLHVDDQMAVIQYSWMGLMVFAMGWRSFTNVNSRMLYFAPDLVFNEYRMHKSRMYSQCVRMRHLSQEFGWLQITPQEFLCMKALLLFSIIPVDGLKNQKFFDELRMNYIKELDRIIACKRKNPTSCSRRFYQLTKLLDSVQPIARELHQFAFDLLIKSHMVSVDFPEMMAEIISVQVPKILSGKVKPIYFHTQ
T1 sequence (P40337 whole entry): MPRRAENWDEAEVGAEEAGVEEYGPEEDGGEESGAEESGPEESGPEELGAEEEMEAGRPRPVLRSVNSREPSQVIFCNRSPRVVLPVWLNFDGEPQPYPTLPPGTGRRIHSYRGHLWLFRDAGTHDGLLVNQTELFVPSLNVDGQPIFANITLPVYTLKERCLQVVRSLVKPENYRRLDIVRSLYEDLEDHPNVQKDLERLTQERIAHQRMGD
T1 sequence (Q15369 whole entry partner): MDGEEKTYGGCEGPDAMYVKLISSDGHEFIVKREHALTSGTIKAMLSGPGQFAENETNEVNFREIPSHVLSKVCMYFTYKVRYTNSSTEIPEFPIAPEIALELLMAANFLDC
T1 sequence (Q15370 whole entry partner): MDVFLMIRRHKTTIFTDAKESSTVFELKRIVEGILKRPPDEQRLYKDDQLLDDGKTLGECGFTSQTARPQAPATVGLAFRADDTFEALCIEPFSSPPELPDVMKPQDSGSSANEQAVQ
Kind of test: Androgen Receptor ELISA assay (PathScan AR ELISA) in LNCaP cells: AR degradation, Dmax and DC50. It is filed as cell-based. The settings on record: for DC50: concentration that caused 50% Androgen Receptor degradation; for Dmax: highest percentage of Androgen Receptor degradation. A general note: ELISA stands for enzyme-linked immunosorbent assay.

For `Cc1ncsc1-c1ccc(CNC(=O)[C@@H]2C[C@@H](O)CN2C(=O)[C@@H](NC(=O)CCCOc2ccc(N3C(=S)N(c4ccc(C#N)c(C(F)(F)F)c4)C(=O)C3(C)C)cc2)C(C)(C)C)cc1` [Example 237], the DC50 was above 0.501 µM and the Dmax was 26 to 50%.

On to `Cc1ncsc1-c1ccc(CNC(=O)[C@@H]2C[C@@H](O)CN2C(=O)[C@@H](NC(=O)OCCOCCCOCCOc2ccc(N3C(=S)N(c4ccc(C#N)c(C(F)(F)F)c4)C(=O)C3(C)C)cc2)C(C)(C)C)cc1` [Example 239], for which the DC50 is below 0.05 µM and the Dmax lay within 51 to 70%.

Take `Cc1ncsc1-c1ccc(CNC(=O)[C@@H]2C[C@@H](O)CN2C(=O)[C@@H](NC(=O)COCCOCCCOCCOc2ccc(N3C(=S)N(c4ccc(C#N)c(C(F)(F)F)c4)C(=O)C3(C)C)cc2)C(C)(C)C)cc1` [Example 240]: the DC50 was below 0.05 µM and the Dmax was 51 to 70%.

On to `Cc1ncsc1-c1ccc(CNC(=O)[C@@H]2C[C@@H](O)CN2C(=O)[C@H](C(C)C)N2Cc3ccccc3C2=O)c(OCCCOCCOc2ccc(N3C(=S)N(c4ccc(C#N)c(C(F)(F)F)c4)C(=O)C3(C)C)cc2)c1` [Example 241], for which the DC50 is below 0.05 µM and the Dmax lay within 26 to 50%.

`Cc1ncsc1-c1ccc(CNC(=O)[C@@H]2C[C@@H](O)CN2C(=O)[C@@H](NC(=O)COCCOCCCOc2ccc(N3C(=S)N(c4ccc(C#N)c(C(F)(F)F)c4)C(=O)C3(C)C)cc2)C(C)(C)C)cc1` [Example 243] returned a DC50 of 0.051 to 0.5 µM and a Dmax of 51 to 70%.

With `Cc1ncsc1-c1ccc(CNC(=O)[C@@H]2C[C@@H](O)CN2C(=O)[C@@H](NC(=O)CCOCCCOc2ccc(N3C(=S)N(c4ccc(C#N)c(C(F)(F)F)c4)C(=O)C3(C)C)cc2)C(C)(C)C)cc1` [Example 244], the DC50 lay within 0.051 to 0.5 µM and the Dmax was below 25%.

Compound `Cc1ncsc1-c1ccc(CNC(=O)[C@@H]2C[C@@H](O)CN2C(=O)[C@@H](NC(=O)CCCOCCOCCNC(=O)c2ccc(N3C(=S)N(c4ccc(C#N)c(C(F)(F)F)c4)C(=O)C3(C)C)cc2F)C(C)(C)C)cc1` [Example 245] had a DC50 above 0.501 µM and a Dmax of 26 to 50%.

On to `Cc1ncsc1-c1ccc(CNC(=O)[C@@H]2C[C@@H](O)CN2C(=O)[C@@H](NC(=O)CCCCOCCCCCOc2ccc(N3C(=S)N(c4ccc(C#N)c(C(F)(F)F)c4)C(=O)C3(C)C)cc2)C(C)(C)C)cc1` [Example 246], for which the DC50 lay in the range of 0.051 to 0.5 µM and the Dmax is above 71%.

`Cc1ncsc1-c1ccc(CNC(=O)[C@@H]2C[C@@H](O)CN2C(=O)[C@H](C(C)C)N2Cc3cc(CCCOCCOc4ccc(N5C(=S)N(c6ccc(C#N)c(C(F)(F)F)c6)C(=O)C5(C)C)cc4)ccc3C2=O)cc1` [Example 248] yielded a DC50 of 0.051 to 0.5 µM and a Dmax of 26 to 50%.

Consider `Cc1ncsc1-c1ccc(CNC(=O)[C@@H]2C[C@@H](O)CN2C(=O)[C@@H](NC(=O)CCCCCOCCCCCOc2ccc(N3C(=S)N(c4ccc(C#N)c(C(F)(F)F)c4)C(=O)C3(C)C)cc2)C(C)(C)C)cc1` [Example 249], for which the DC50 lay within 0.051 to 0.5 µM and the Dmax was above 71%.

In turn, `Cc1ncsc1-c1ccc(CNC(=O)[C@@H]2C[C@@H](O)CN2C(=O)[C@H](C(C)C)N2Cc3ccccc3C2=O)c(OCCCOCCCOc2ccc(N3C(=S)N(c4ccc(C#N)c(C(F)(F)F)c4)C(=O)C3(C)C)cc2)c1` [Example 250] showed a DC50 of 0.051 to 0.5 µM and a Dmax above 71%.

The compound `Cc1ncsc1-c1ccc(CNC(=O)[C@@H]2C[C@@H](O)CN2C(=O)[C@H](C(C)C)N2Cc3cc(CCCCCOc4ccc(N5C(=S)N(c6ccc(C#N)c(C(F)(F)F)c6)C(=O)C5(C)C)cc4)ccc3C2=O)cc1` [Example 251] showed a 50% degradation concentration (DC50) of 0.051 to 0.5 µM and a Dmax of 51 to 70%.

As to `Cc1ncsc1-c1ccc(CNC(=O)[C@@H]2C[C@@H](O)CN2C(=O)[C@H](C(C)C)N2Cc3cc(CCCCOCCOc4ccc(N5C(=S)N(c6ccc(C#N)c(C(F)(F)F)c6)C(=O)C5(C)C)cc4)ccc3C2=O)cc1` [Example 252], the DC50 lay within 0.051 to 0.5 µM and the Dmax is 51 to 70%.

Regarding `Cc1ncsc1-c1ccc(CNC(=O)[C@@H]2C[C@@H](O)CN2C(=O)[C@@H](NC(=O)COCCCOCCOCCOc2ccc(N3C(=S)N(c4ccc(C#N)c(C(F)(F)F)c4)C(=O)C3(C)C)cc2)C(C)(C)C)cc1` [Example 253], the DC50 lay within 0.051 to 0.5 µM and the Dmax fell in the range of 51 to 70%.

With `Cc1ncsc1-c1ccc(CNC(=O)[C@@H]2C[C@@H](O)CN2C(=O)[C@H](C(C)C)N2Cc3ccccc3C2=O)c(OCCCOc2ccc(N3C(=S)N(c4ccc(C#N)c(C(F)(F)F)c4)C(=O)C3(C)C)cc2)c1` [Example 254], the DC50 fell in the range of 0.051 to 0.5 µM and the Dmax fell in the range of 51 to 70%.

`Cc1ncsc1-c1ccc(CNC(=O)[C@@H]2C[C@@H](O)CN2C(=O)[C@@H](NC(=O)COCCCCOCCCCCOc2ccc(N3C(=S)N(c4ccc(C#N)c(C(F)(F)F)c4)C(=O)C3(C)C)cc2)C(C)(C)C)cc1` [Example 255] gave a DC50 of 0.051 to 0.5 µM and a Dmax above 71%.

The compound `Cc1ncsc1-c1ccc(CNC(=O)[C@@H]2C[C@@H](O)CN2C(=O)[C@H](C(C)C)N2Cc3ccccc3C2=O)c(OCCCCOc2ccc(N3C(=S)N(c4ccc(C#N)c(C(F)(F)F)c4)C(=O)C3(C)C)cc2)c1` [Example 256] yielded a DC50 of 0.051 to 0.5 µM and a Dmax of 51 to 70%.

`Cc1ncsc1-c1ccc(CNC(=O)[C@@H]2C[C@@H](O)CN2C(=O)[C@@H](NC(=O)c2ccc(OCCCCOc3ccc(N4C(=S)N(c5ccc(C#N)c(C(F)(F)F)c5)C(=O)C4(C)C)cc3)cc2)C(C)(C)C)cc1` [Example 257] showed a DC50 of 0.051 to 0.5 µM and a Dmax of 26 to 50%.

For `Cc1ncsc1-c1ccc(CNC(=O)[C@@H]2C[C@@H](O)CN2C(=O)[C@@H](NC(=O)c2ccc(OCCCCCOc3ccc(N4C(=S)N(c5ccc(C#N)c(C(F)(F)F)c5)C(=O)C4(C)C)cc3)cc2)C(C)(C)C)cc1` [Example 258], the DC50 is 0.051 to 0.5 µM and the Dmax fell in the range of 26 to 50%.

Consider `Cc1ncsc1-c1ccc(CNC(=O)[C@@H]2C[C@@H](O)CN2C(=O)[C@@H](NC(=O)CCCCOc2ccc(CCCOc3ccc(N4C(=S)N(c5ccc(C#N)c(C(F)(F)F)c5)C(=O)C4(C)C)cc3)cc2)C(C)(C)C)cc1` [Example 259], for which the DC50 lay in the range of 0.051 to 0.5 µM and the Dmax was above 71%.

As for `Cc1ncsc1-c1ccc(CNC(=O)[C@@H]2C[C@@H](O)CN2C(=O)[C@H](C(C)C)N2Cc3ccccc3C2=O)c(OCCOc2ccc(N3C(=S)N(c4ccc(C#N)c(C(F)(F)F)c4)C(=O)C3(C)C)cc2)c1` [Example 261], the DC50 lay within 0.051 to 0.5 µM and the Dmax was below 25%.

`Cc1ncsc1-c1ccc(CNC(=O)[C@@H]2C[C@@H](O)CN2C(=O)[C@@H](NC(=O)COCCOCCCOCCCOc2ccc(N3C(=S)N(c4ccc(C#N)c(C(F)(F)F)c4)C(=O)C3(C)C)cc2)C(C)(C)C)cc1` [Example 262]: the DC50 was 0.051 to 0.5 µM and the Dmax lay within 26 to 50%.

In turn, `Cc1ncsc1-c1ccc(CNC(=O)[C@@H]2C[C@@H](O)CN2C(=O)[C@@H](NC(=O)c2ccc(OCCOCCCCOc3ccc(N4C(=S)N(c5ccc(C#N)c(C(F)(F)F)c5)C(=O)C4(C)C)cc3)cc2)C(C)(C)C)cc1` [Example 263] returned a DC50 of 0.051 to 0.5 µM and a Dmax of 26 to 50%.

Consider `Cc1ncsc1-c1ccc(CNC(=O)[C@@H]2C[C@@H](O)CN2C(=O)[C@@H](NC(=O)c2ccc(OCCOCCOc3ccc(N4C(=S)N(c5ccc(C#N)c(C(F)(F)F)c5)C(=O)C4(C)C)cc3)cc2)C(C)(C)C)cc1` [Example 264], for which the DC50 fell in the range of 0.051 to 0.5 µM and the Dmax was below 25%.

The compound `Cc1ncsc1-c1ccc(CNC(=O)[C@@H]2C[C@@H](O)CN2C(=O)[C@@H](NC(=O)c2ccc(OCCCOc3ccc(N4C(=S)N(c5ccc(C#N)c(C(F)(F)F)c5)C(=O)C4(C)C)cc3)cc2)C(C)(C)C)cc1` [Example 265] yielded a DC50 of 0.051 to 0.5 µM and a Dmax below 25%.

`CC(=O)N[C@H](C(=O)N1C[C@H](O)C[C@H]1C(=O)NCc1ccc(-c2scnc2C)cc1OCCOCCOCCOc1ccc(N2C(=S)N(c3ccc(C#N)c(C(F)(F)F)c3)C(=O)C2(C)C)cc1)C(C)(C)C` [Example 266] returned a DC50 of 0.051 to 0.5 µM and a Dmax of 51 to 70%.

As to `CCC(=O)N[C@H](C(=O)N1C[C@H](O)C[C@H]1C(=O)NCc1ccc(-c2scnc2C)cc1OCCOCCOCCOc1ccc(N2C(=S)N(c3ccc(C#N)c(C(F)(F)F)c3)C(=O)C2(C)C)cc1)C(C)(C)C` [Example 267], the DC50 fell in the range of 0.051 to 0.5 µM and the Dmax lay within 51 to 70%.

In turn, `CCC(=O)N[C@H](C(=O)N1C[C@H](O)C[C@H]1C(=O)NCc1ccc(-c2scnc2C)cc1OCCOCCOCCOc1ccc(N2C(=O)N(c3ccc(C#N)c(C(F)(F)F)c3)C(=O)C2(C)C)cc1)C(C)(C)C` [Example 268] registered a DC50 above 0.501 µM and a maximal degradation (Dmax) of 51 to 70%.

In the case of `Cc1ncsc1-c1ccc(CNC(=O)[C@@H]2C[C@@H](O)CN2C(=O)[C@@H](NC(=O)C(C)C)C(C)(C)C)c(OCCOCCOCCOc2ccc(N3C(=S)N(c4ccc(C#N)c(C(F)(F)F)c4)C(=O)C3(C)C)cc2)c1` [Example 269], the DC50 is above 0.501 µM and the Dmax is 51 to 70%.

For the compound `Cc1ncsc1-c1ccc(CNC(=O)[C@@H]2C[C@@H](O)CN2C(=O)[C@@H](NC(=O)C(C)(C)C)C(C)(C)C)c(OCCOCCOCCOc2ccc(N3C(=S)N(c4ccc(C#N)c(C(F)(F)F)c4)C(=O)C3(C)C)cc2)c1` [Example 270], the DC50 is 0.051 to 0.5 µM and the Dmax lay in the range of 51 to 70%.

In turn, `CC(=O)NCC(=O)N1C[C@H](O)C[C@H]1C(=O)NCc1ccc(-c2scnc2C)cc1OCCOCCOCCOc1ccc(N2C(=S)N(c3ccc(C#N)c(C(F)(F)F)c3)C(=O)C2(C)C)cc1` [Example 271] returned a DC50 above 0.501 µM and a Dmax of 26 to 50%.

On to `CC(=O)N[C@@H](C)C(=O)N1C[C@H](O)C[C@H]1C(=O)NCc1ccc(-c2scnc2C)cc1OCCOCCOCCOc1ccc(N2C(=S)N(c3ccc(C#N)c(C(F)(F)F)c3)C(=O)C2(C)C)cc1` [Example 272], for which the DC50 was above 0.501 µM and the Dmax was below 25%.

`Cc1ncsc1-c1ccc(CNC(=O)[C@@H]2C[C@@H](O)CN2C(=O)[C@H](C(C)C)N2Cc3cc(CCCCOCCCOc4ccc(N5C(=S)N(c6ccc(C#N)c(C(F)(F)F)c6)C(=O)C5(C)C)cc4)ccc3C2=O)cc1` [Example 273] came in with a DC50 above 0.501 µM and a Dmax of 26 to 50%.
